From patent publication US20180057507A1, “INHIBITORS OF DUAL LEUCINE ZIPPER (DLK) KINASE FOR THE TREATMENT OF DISEASE” (Board of Regents, The University of Texas System, priority 2016, published 2018)

Tests used:
[1] = target: T1, human DLK (Homo sapiens, UniProt Q12852); test: Phospho-cJun Cellular Assay; format: cell-based; parameters: expressed in transfected cells; settings: HEK293 cells stably transfected with Dox-inducible human DLK; p-cJun (Ser63); 5 h compound incubation
T1 sequence (Q12852 1-859): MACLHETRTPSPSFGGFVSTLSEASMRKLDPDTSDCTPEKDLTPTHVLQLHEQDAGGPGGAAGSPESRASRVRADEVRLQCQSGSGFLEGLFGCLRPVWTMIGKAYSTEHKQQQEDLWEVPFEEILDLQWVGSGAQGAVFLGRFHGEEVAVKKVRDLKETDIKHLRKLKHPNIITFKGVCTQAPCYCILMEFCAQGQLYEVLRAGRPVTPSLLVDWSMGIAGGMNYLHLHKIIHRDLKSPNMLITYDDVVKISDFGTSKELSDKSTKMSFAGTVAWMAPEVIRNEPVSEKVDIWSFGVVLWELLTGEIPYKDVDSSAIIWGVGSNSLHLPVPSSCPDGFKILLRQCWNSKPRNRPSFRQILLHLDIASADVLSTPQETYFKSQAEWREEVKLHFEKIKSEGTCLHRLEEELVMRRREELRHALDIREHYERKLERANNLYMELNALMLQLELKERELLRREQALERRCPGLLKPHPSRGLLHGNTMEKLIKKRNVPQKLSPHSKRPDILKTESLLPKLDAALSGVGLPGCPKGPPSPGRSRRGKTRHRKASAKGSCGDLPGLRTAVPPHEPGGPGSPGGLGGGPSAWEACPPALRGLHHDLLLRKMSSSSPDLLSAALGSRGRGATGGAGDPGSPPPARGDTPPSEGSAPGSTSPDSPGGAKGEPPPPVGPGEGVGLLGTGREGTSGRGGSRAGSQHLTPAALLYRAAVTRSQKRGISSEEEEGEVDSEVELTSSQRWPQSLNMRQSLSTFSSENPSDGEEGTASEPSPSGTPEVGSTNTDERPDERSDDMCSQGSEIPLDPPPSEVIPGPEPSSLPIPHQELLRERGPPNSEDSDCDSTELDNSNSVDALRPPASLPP
Method: Phospho-cJun Cellular Assay
HEK293 cells stably transfected with a Dox-inducible human DLK were plated into a 384-well plate in 20 μl (40,000 cells/well) of DMEM medium (without phenol red) containing 10% fetal bovine serum, 1.5 μg/ml doxycycline and 1 μg/ml puromycin. The cells as negative control were grown in the absence of doxycycline. The plate was incubated at 37° C., 5% CO2 for 20 h, before DMSO (control) or compounds diluted in medium were added. The cells were incubated at 37° C. for an additional 5 h, followed by lysis and the addition detection antibodies from p-cJun (Ser63) cellular assay kit (Cisbio) per manufacturer protocol. The standard dose response curves were fitted by Genedata Screener software using the variable-slope model: Signal=Signalnegative control+(SignalDMSO control−Signalnegative control)/(1+(IC50/Dose)̂Hill slope). Only signal and dose in the equation were treated as known values.

[2] = target: T1, human DLK; test: DLK Kd Determinations (KINOMEscan KdELECT, DiscoveRx); parameters: full length of human DLK (amino acids 1-859); host or cells: transiently transfected HEK293 cells; unpurified extract; settings: fusion protein of full length human DLK (amino acids 1-859) and NFkB DNA binding domain; qPCR readout; duplicate
Procedure, shortened: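 Kd values were fitted by Hill equation (slope −1) from duplicate 11-point 3-fold dilutions starting at 30,000 nM. Bead-immobilized ligand competed with compound for DNA-tagged full-length human DLK fusion in HEK293 extract (final DMSO 0.9%, 1 h, room temperature), with qPCR readout of bound kinase.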

Structure (SMILES): COCCN1C[C@@H]2[C@H](C1)[C@H]2n1cc(-c2cnc(N)c(OC(F)F)c2)nc1CC1CC1 [Example 117, 5-(2-(cyclopropylmethyl)-1-((1R,5S,6s)-3-(2-methoxyethyl)-3-azabicyclo[3.1.0]hexan-6-yl)-1H-imidazol-4-yl)-3-(difluoromethoxy)pyridin-2-amine]
- IC50 [1]: 0.987 µM
- Kd [2]: 0.048 µM

Structure (SMILES): Nc1ncc(-c2cn(C3CC4(CC(N5CCOCC5)C4)C3)c(C3CC3)n2)cc1C(F)(F)F (stereo not drawn) [Example 40, 5-(2-cyclopropyl-1-(6-morpholinospiro[3.3]heptan-2-yl)-1H-imidazol-4-yl)-3-(trifluoromethyl)pyridin-2-amine]
- IC50 [1]: 0.587 µM
- Kd [2]: 0.042 µM

Structure (SMILES): Nc1ncc(-c2cn([C@H]3[C@@H]4CC(N5CCCOCC5)C[C@@H]43)c(C3CC3)n2)cc1OC(F)(F)F (stereo partly drawn) [Example 149, 5-(1-(3-(1,4-oxazepan-4-yl)bicyclo[3.1.0]hexan-6-yl)-2-cyclopropyl-1H-imidazol-4-yl)-3-(trifluoromethoxy)pyridin-2-amine]
- IC50 [1]: 0.574 µM
- Kd [2]: 0.037 µM

Structure (SMILES): CC(C)c1nc(-c2cnc(N)c(C(F)(F)F)c2)cn1[C@H]1C[C@@H](N2CCCOCC2)C1 [Example 45, 5-(1-((1s,3s)-3-(1,4-oxazepan-4-yl)cyclobutyl)-2-isopropyl-1H-imidazol-4-yl)-3-(trifluoromethyl)pyridin-2-amine]
- IC50 [1]: 6.19 µM
- Kd [2]: 0.34 µM

Structure (SMILES): CN1CCN(C2C[C@@H]3[C@H](C2)[C@H]3n2cc(-c3cnc(N)c(C(F)(F)F)c3)nc2CC2CC2)CC1 (single isomer, unassigned) [Example 161b, 5-(2-(cyclopropylmethyl)-1-(3-(4-methylpiperazin-1-yl)bicyclo[3.1.0]hexan-6-yl)-1H-imidazol-4-yl)-3-(trifluoromethyl)pyridin-2-amine]
- IC50 [1]: 0.629 µM

Structure (SMILES): CC(C)c1nc(-c2cnc(N)c(OC(F)F)c2)cn1[C@H]1[C@@H]2CC(N3CCN(C)CC3)C[C@@H]21 (single isomer, unassigned) [Example 145b, 3-(difluoromethoxy)-5-(2-isopropyl-1-(3-(4-methylpiperazin-1-yl)bicyclo[3.1.0]hexan-6-yl)-1H-imidazol-4-yl)pyridin-2-amine]
- IC50 [1]: 0.889 µM
- Kd [2]: 0.05 µM

Structure (SMILES): Nc1ncc(-c2cn([C@H]3[C@@H]4CC(N5CCOCC5)C[C@@H]43)c(CC3CC3)n2)cc1C(F)(F)F (single isomer, unassigned) [Example 138a, 5-(2-(cyclopropylmethyl)-1-(3-morpholinobicyclo[3.1.0]hexan-6-yl)-1H-imidazol-4-yl)-3-(trifluoromethyl)pyridin-2-amine]
- IC50 [1]: 1.01 µM
- Kd [2]: 0.023 µM

Structure (SMILES): CC(C)(C)Cc1nc(-c2cnc(N)c(C(F)(F)F)c2)cn1[C@H]1[C@@H]2CN(CCF)C[C@@H]21 [Example 85, 5-(1-((1R,5S,6s)-3-(2-fluoroethyl)-3-azabicyclo[3.1.0]hexan-6-yl)-2-neopentyl-1H-imidazol-4-yl)-3-(trifluoromethyl)pyridin-2-amine]
- IC50 [1]: 0.594 µM
- Kd [2]: 0.06 µM

Structure (SMILES): CC1COCCN1C1C[C@@H]2[C@H](C1)[C@H]2n1cc(-c2cnc(N)c(OC(F)(F)F)c2)nc1C1CC1 (stereo partly drawn) [Example 148, 5-(2-cyclopropyl-1-(3-(3-methylmorpholino)bicyclo[3.1.0]hexan-6-yl)-1H-imidazol-4-yl)-3-(trifluoromethoxy)pyridin-2-amine]
- IC50 [1]: 0.71 µM
- Kd [2]: 0.022 µM

Structure (SMILES): Nc1ncc(-c2cn([C@H]3[C@@H]4CC(N5CCN(CCF)CC5)C[C@@H]43)c(C3CC3)n2)cc1C(F)(F)F (single isomer, unassigned) [Example 153b, 5-(2-cyclopropyl-1-(3-(4-(2-fluoroethyl)piperazin-1-yl)bicyclo[3.1.0]hexan-6-yl)-1H-imidazol-4-yl)-3-(trifluoromethyl)pyridin-2-amine]
- IC50 [1]: 0.809 µM
- Kd [2]: 0.009 µM

Structure (SMILES): Nc1ncc(-c2cn(C3CC4(CC(N5CCOCC5)C4)C3)c(C3CC3)n2)cc1OC(F)(F)F (stereo not drawn) [Example 41, 5-(2-cyclopropyl-1-(6-morpholinospiro[3.3]heptan-2-yl)-1H-imidazol-4-yl)-3-(trifluoromethoxy)pyridin-2-amine]
- IC50 [1]: 0.483 µM
- Kd [2]: 0.038 µM

Structure (SMILES): COCCN1C[C@@H]2[C@H](C1)[C@H]2n1cc(-c2cnc(N)c(C(F)(F)F)c2)nc1C1CC1 [Example 94, 5-(2-cyclopropyl-1-((1R,5S,6s)-3-(2-methoxyethyl)-3-azabicyclo[3.1.0]hexan-6-yl)-1H-imidazol-4-yl)-3-(trifluoromethyl)pyridin-2-amine]
- IC50 [1]: 1.96 µM
- Kd [2]: 0.061 µM

Structure (SMILES): CC(C)c1nc(-c2cnc(N)c(C(F)(F)F)c2)cn1[C@H]1[C@@H]2CC(N3CCN(C)CC3)C[C@@H]21 (stereo partly drawn) [Example 144, 5-(2-isopropyl-1-(3-(4-methylpiperazin-1-yl)bicyclo[3.1.0]hexan-6-yl)-1H-imidazol-4-yl)-3-(trifluoromethyl)pyridin-2-amine]
- IC50 [1]: 0.859 µM
- Kd [2]: 0.038 µM

Structure (SMILES): Nc1ncc(-c2cn([C@H]3[C@@H]4CN(C5CCOCC5)C[C@@H]43)c(C3CC3)n2)cc1OC(F)F [Example 105, 5-(2-cyclopropyl-1-((1R,5S,6s)-3-(tetrahydro-2H-pyran-4-yl)-3-azabicyclo[3.1.0]hexan-6-yl)-1H-imidazol-4-yl)-3-(difluoromethoxy)pyridin-2-amine]
- IC50 [1]: 1.9 µM
- Kd [2]: 0.079 µM

Structure (SMILES): CC(C)c1nc(-c2cnc(N)c(OC(F)(F)F)c2)cn1[C@H]1C[C@H](N2CCOCC2)C1 [Example 43, 5-(2-isopropyl-1-((1r,3r)-3-morpholinocyclobutyl)-1H-imidazol-4-yl)-3-(trifluoromethoxy)pyridin-2-amine]
- IC50 [1]: 0.804 µM
- Kd [2]: 0.12 µM

Structure (SMILES): CC(C)c1nc(-c2cnc(N)c(C(F)(F)F)c2)cn1[C@H]1[C@@H]2CC(O)C[C@@H]21 (single isomer, unassigned) [Example 48b, 6-(4-(6-amino-5-(trifluoromethyl)pyridin-3-yl)-2-isopropyl-1H-imidazol-1-yl)bicyclo[3.1.0]hexan-3-ol]
- IC50 [1]: 1.24 µM
- Kd [2]: 0.059 µM

Structure (SMILES): CC(C)c1nc(-c2cnc(N)c(C(F)(F)F)c2)cn1[C@H]1C[C@@H](N2CCOCC2)C1 [Example 44, 5-(2-isopropyl-1-((1s,3s)-3-morpholinocyclobutyl)-1H-imidazol-4-yl)-3-(trifluoromethyl)pyridin-2-amine]
- IC50 [1]: 7.69 µM

Structure (SMILES): Nc1ncc(-c2cn([C@H]3[C@@H]4CC(N5CCN(CCF)CC5)C[C@@H]43)c(CC3CC3)n2)cc1C(F)(F)F (single isomer, unassigned) [Example 162a, 5-(2-(cyclopropylmethyl)-1-(3-(4-(2-fluoroethyl)piperazin-1-yl)bicyclo[3.1.0]hexan-6-yl)-1H-imidazol-4-yl)-3-(trifluoromethyl)pyridin-2-amine]
- IC50 [1]: 1.04 µM

Structure (SMILES): Nc1ncc(-c2cn([C@H]3[C@@H]4CN(CCF)C[C@@H]43)c(C3CC3)n2)cc1OC(F)F [Example 106, 5-(2-cyclopropyl-1-((1R,5S,6s)-3-(2-fluoroethyl)-3-azabicyclo[3.1.0]hexan-6-yl)-1H-imidazol-4-yl)-3-(difluoromethoxy)pyridin-2-amine]
- Kd [2]: 0.055 µM

Structure (SMILES): Nc1ncc(-c2cn([C@H]3[C@@H]4CN(C5COC5)C[C@@H]43)c(C3CCC3)n2)cc1OC(F)(F)F [Example 56, 5-(2-cyclobutyl-1-((1R,5S,6s)-3-(oxetan-3-yl)-3-azabicyclo[3.1.0]hexan-6-yl)-1H-imidazol-4-yl)-3-(trifluoromethoxy)pyridin-2-amine]
- Kd [2]: 0.28 µM

Structure (SMILES): Nc1ncc(-c2cn([C@H]3[C@@H]4CN(CCF)C[C@@H]43)c(CC3CC3)n2)cc1OC(F)(F)F [Example 101, 5-(2-(cyclopropylmethyl)-1-((1R,5S,6s)-3-(2-fluoroethyl)-3-azabicyclo[3.1.0]hexan-6-yl)-1H-imidazol-4-yl)-3-(trifluoromethoxy)pyridin-2-amine]
- Kd [2]: 0.081 µM
